Experimental data published in PubChem BioAssay AID276 (DTP/NCI, 2004).
Several values for one entry are separate records, joined by “and”; a condition that tells them apart may be missing. Identical values can stand only once. Toxic doses and inconclusive results are not listed. The calls were made as follows: active = survival T/C of 150% or more; inactive = T/C below 125% in these data.

System: B6C3F1 mice, Lewis lung carcinoma iv, survival T/C
Assay: NCI In Vivo Anticancer Drug Screen. Data for tumor model Lewis Lung Carcinoma (intravenous) in B6C3F1 mice
Conditions: endpoint: median survival time, schedule: Q01DX009 (ip), higher = longer survival
Summary of the method: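 Transplantable tumor in mice; compound treated vs vehicle controls; read-out survival; value = treated/control (T/C).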

[1] = dose: 3.12 mg/kg/injection, vehicle: saline
[2] = dose: 6.25 mg/kg/injection, vehicle: saline
[3] = dose: 12.5 mg/kg/injection, vehicle: saline
[4] = dose: 25.0 mg/kg/injection, vehicle: saline
[5] = dose: 25.0 mg/kg/injection, vehicle: saline with Tween-80
[6] = dose: 50.0 mg/kg/injection, vehicle: saline with Tween-80

Measured: T/C

CN(C)c1ccc2c(NCCCCCCNc3ccnc4cc(N(C)C)ccc34)ccnc2c1
inactive: dose: 1.56 mg/kg/injection, vehicle: distilled water + Tween-80 + alcohol 97 % of control | dose: 3.12 mg/kg/injection, vehicle: distilled water + Tween-80 + alcohol 106 % of control | dose: 6.25 mg/kg/injection, vehicle: distilled water + Tween-80 + alcohol 111 % of control | dose: 12.5 mg/kg/injection, vehicle: distilled water + Tween-80 + alcohol 97 % of control | dose: 25.0 mg/kg/injection, vehicle: distilled water + Tween-80 + alcohol 116 % of control

OCCN1CCN(CC/C=C2/c3ccccc3Sc3ccc(Cl)cc32)CC1
inactive: dose: 1.56 mg/kg/injection, vehicle: saline 99 % of control | [1] 103 % of control | [2] 98 % of control | [3] 103 % of control | [4] 110 % of control

C#CCNC1=C(C)C(=O)C2=C(C1=O)[C@H](COC(N)=O)[C@]1(OC)[C@@H]3N[C@@H]3CN21
inactive: dose: 6.25 mg/kg/injection, vehicle: distilled water + Tween-80 102 % of control

N=c1ccc2nc3ccc(N)cc3sc-2c1
inactive: dose: 6.25 mg/kg/injection, vehicle: water 113 % of control | dose: 12.5 mg/kg/injection, vehicle: water 117 % of control | dose: 25.0 mg/kg/injection, vehicle: water 93 % of control

CN(C)CCNc1ccc([N+](=O)[O-])c2sc3ccccc3c(=O)c12
inactive: [1] 96 % of control | [2] 108 % of control | [3] 115 % of control | [4] 119 % of control

NS(=O)(=O)OCCCCCCCOS(N)(=O)=O
inactive: dose: 12.5 mg/kg/injection, vehicle: saline with Tween-80 91 % of control | [5] 98 % of control | [6] 88 % of control

O=C1SC(c2ccccc2)=S=C1c1ccccc1
inactive: [5] 100 % of control | [6] 93 % of control | dose: 100.0 mg/kg/injection, vehicle: saline with Tween-80 95 % of control | dose: 200.0 mg/kg/injection, vehicle: saline with Tween-80 104 % of control | dose: 400.0 mg/kg/injection, vehicle: saline with Tween-80 108 % of control

CCCCNc1ccc2nnc(C)n2n1
inactive: dose: 50.0 mg/kg/injection, vehicle: DMSO 100 % of control | dose: 100.0 mg/kg/injection, vehicle: DMSO 100 % of control | dose: 200.0 mg/kg/injection, vehicle: DMSO 102 % of control

c1ccc([P+](c2ccccc2)(c2ccccc2)c2ccccc2)cc1
inactive: dose: 0.09 mg/kg/injection, vehicle: saline 112 % of control | dose: 0.18 mg/kg/injection, vehicle: saline 112 % of control | dose: 0.37 mg/kg/injection, vehicle: saline 107 % of control | dose: 0.75 mg/kg/injection, vehicle: saline 105 % of control and 112 % of control | dose: 1.5 mg/kg/injection, vehicle: saline 103 % of control and 111 % of control | dose: 3.0 mg/kg/injection, vehicle: saline 95 % of control and 124 % of control | dose: 6.0 mg/kg/injection, vehicle: saline 94 % of control
